Experimental data from US20250064983A1, “COMPOSITIONS AND METHODS FOR TREATING A CARDIAC DISEASE” (The Children's Medical Center Corporation, priority 2022, published 2025).

What was measured:
LKB Flox/Flox mice = assay: Example 4: beat to beat variation in LKB Flox/Flox mice with NPPA-Cre (atrial fibrillation model); assay type: in vivo, mouse; conditions: co-injection of NPPA-Cre and AIP×5-mcherry AAV; 2, 4 and 6 weeks
Procedure: FIGS. 7A and 7B provide plots showing the impact of AIP×5 administration on atrial fibrillation in a mouse model. LKB Flox/Flox mice were double injected with AAV-NPPA-Cre and AAV-AIP×5-mcherry (see FIG. 6). FIG. 7A provides plots showing results from an experiment where mice positive for the LKB1 flanked by LoxP sites (LKB1flox/flox) were injected with either AAV9-NPPA-RFP, AAV9-NPPA-Cre or double injections of AAV9-NPPA-Cre+AAV9-cTnT-AIP×5 at post-natal day 3 (P3). At two week intervals, ECG recordings for 3 minutes were performed under anesthesia. The time difference between two QRS complexes (RR interval) was plotted as a function of the following interval (RR+1). FIG. 7B provides a plot where the standard deviation of the RR intervals for a 1 minute recording was calculated for each animal at the time points shown.
Experiments were undertaken to evaluate the efficacy of AIP×5 administration in treatment of atrial fibrillation. LKB Flox/Flox mice were double injected with NPPA-Cre and AIP×5-mcherry using an AAV vector. The mice were a model for atrial fibrillation. […] It was evaluated whether co-injection with AAV-AIP×5 would reduce AF. Beat to beat variation in HR, an index of AF frequency, was analyzed by plotting each RR interval (R) versus the RR interval of the subsequent beat (RI) (n=˜500 beats) (FIG. 7A). […] HR beat to beat variation was analyzed at 2 weeks, 4 weeks, and 6 weeks.

[1] = test system: RYR2^R176Q/QT and RYR2^R4560I/WT mice; assay: Example 3: AAV vectors expressing AIP×5 in CPVT animal models; assay type: in vivo, mouse; conditions: example written in present tense
Source text: FIG. 6 provides a schematic showing administration of AAV vectors to RYR2^R176Q/WT and RYR2^R4560I/WT mice. […]. The top portion of FIG. 6 provides a schematic showing the components of polynucleotides of the AAV vectors. In FIG. 6, ITR represents “inverted terminal repeat,” CASQ2 represents a calsequestrin 2 enhancer, cTnT represents a “cardiac troponin” promoter, an INT represents a hemoglobin enhancer, AIP×5 represents a multimer containing five autocamtide-2-related inhibitory peptide (AIP) units, mScarlet represents the fluorescent polypeptide mScarlet, nls represents a nuclear localization signal, “stop” represents a stop codon, and WPRE represents a Woodchuck Hepatitis Virus (WHV) Posttranscriptional Regulatory Element.
AAV vectors expressing AIP×5 or a negative control AIV vector expressing only mScarlet (see FIG. 6) are prepared and administered to RYR2^R176Q/QT and RYR2^R4560I/WT mice, which are animal models of catecholaminergic polymorphic ventricular tachycardia (CPVT). The efficacy of the vectors in reducing symptoms of CPVT is evaluated in the animal models.

CaMKIIδ = CaMKIIδ (Homo sapiens, UniProt Q13557); assay: in vitro inhibition of CaMKIIδ, bioluminescent ADP monitoring assay (ADP-GLO); assay type: biochemical; conditions: purified polypeptides
CaMKIIδ, sequence (Q13557 1-478): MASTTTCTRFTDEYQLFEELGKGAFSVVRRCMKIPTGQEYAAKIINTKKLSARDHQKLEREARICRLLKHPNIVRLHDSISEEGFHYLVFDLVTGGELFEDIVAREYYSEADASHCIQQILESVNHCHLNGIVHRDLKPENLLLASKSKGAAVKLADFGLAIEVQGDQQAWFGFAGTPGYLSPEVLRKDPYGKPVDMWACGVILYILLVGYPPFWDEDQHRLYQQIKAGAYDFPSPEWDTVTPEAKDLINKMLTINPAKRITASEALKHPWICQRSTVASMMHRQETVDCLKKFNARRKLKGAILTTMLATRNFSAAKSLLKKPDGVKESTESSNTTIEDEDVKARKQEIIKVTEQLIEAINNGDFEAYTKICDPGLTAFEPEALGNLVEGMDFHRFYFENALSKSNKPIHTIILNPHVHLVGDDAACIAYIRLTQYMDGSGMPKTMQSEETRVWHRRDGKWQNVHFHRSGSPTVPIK
Procedure: FIG. 4 provides a schematic illustrating the design of an in vitro experiment to evaluate the impact of the purified polypeptides described in FIG. 2D and shown in the left portion of FIG. 4 on CaMKIIδ (an isomer of CaMKII) activity. Activity of CaMKIIδ was measured using a bioluminescent and homogeneous ADP monitoring assay for kinases (ADP-GLO™), which is described in Zegzouti, et al. “ADP-Glo: A Bioluminescent and Homogeneous ADP Monitoring Assay for Kinases,” ASSAY and Drug Development Technologies, December 2009, 560-572, doi.org/10.1089/adt.2009.0222, the disclosure of which is incorporated herein by reference in its entirety for all purposes.
Inhibition of CaMKIIδ activity by the polypeptides was evaluated using a bioluminescent and homogeneous ADP monitoring assay for kinases (ADP-GLO™), which is described in Zegzouti, et al. “ADP-Glo: A Bioluminescent and Homogeneous ADP Monitoring Assay for Kinases,” ASSAY and Drug Development Technologies, December 2009, 560-572, doi.org/10.1089/adt.2009.0222, the disclosure of which is incorporated herein by reference in its entirety for all purposes (FIG. 4).

Sequence: YKKALHRQEAVDALYKKALHRQEAVDALYKKALHRQEAVDALYKKALHRQEAVDALYKKALHRQEAVDAL [AIP×5]
- symptoms of AF (beat to beat variation of RR interval) (LKB Flox/Flox mice): effective in reducing symptoms of AF
- symptoms of CPVT (ectopy and/or ventricular tachycardia) [1]: reduction in symptoms of CPVT
- EC50 (CaMKIIδ): 114 nM
